Assay results: US12122761B2, “2-azaspiro[3.4]octane derivatives as M4 agonists” (NOVARTIS AG, priority 2019, dated 2024)
Where two headings read alike, the source gives them in different places.

What was measured:
[1] = biological target: T1, human cloned CHRM4 receptor (M4_CHO cells) (Homo sapiens, UniProt P08173); assay: CHRM4 Ca++ Flux Assay (agonist mode, FDSS 7000EX); format: cell-based; conditions: for M4 FDSS PA: Percent Activity; for EC50: geometric mean if tested more than once, read-out: M4 FDSS EC50
T1 construct: expressed in transfected cells; host or cells: CHO-K1
T1 sequence (P08173 1-479): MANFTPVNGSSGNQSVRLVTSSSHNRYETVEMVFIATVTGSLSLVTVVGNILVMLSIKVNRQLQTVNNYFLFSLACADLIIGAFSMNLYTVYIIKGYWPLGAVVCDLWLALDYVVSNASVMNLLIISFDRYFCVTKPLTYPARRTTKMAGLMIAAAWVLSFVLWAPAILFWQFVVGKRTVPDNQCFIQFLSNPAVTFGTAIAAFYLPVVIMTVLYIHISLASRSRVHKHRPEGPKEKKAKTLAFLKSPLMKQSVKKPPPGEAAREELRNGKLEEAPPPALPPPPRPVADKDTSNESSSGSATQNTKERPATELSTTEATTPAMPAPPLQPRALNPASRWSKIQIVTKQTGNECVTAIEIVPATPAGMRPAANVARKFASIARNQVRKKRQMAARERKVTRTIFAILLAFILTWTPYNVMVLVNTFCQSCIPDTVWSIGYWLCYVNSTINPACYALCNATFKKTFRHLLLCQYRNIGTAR
Protocol: (§1) The above examples were characterized by measuring the intracellular mobilization of Ca++ ions caused by signaling events mediated by the receptor. The Intra-cellular Calcium flux levels were captured by the highly sensitive Ca++ indicator, Calcium Assay Kit (BD Biosciences, Catalog Number 640178). The fluorescent activity from all receptors were monitored by the fluorescent imager, FDSS 7000EX (Hamamatsu) over a span of 3 minutes.
CHO-K1 cells stably expressing the human cloned CHRM4 receptor (M4_CHO cells) were grown and maintained in a monolayer culture with F12/HAM (Life Technologies) supplemented with 10% Fetal Bovine Serum, 1× Pen-Strep, and 0.4 mg/mL Geneticin in a humidified atmosphere (5% CO2) at 37° C. The cultures were grown to 80-90% confluency in T150 flasks (Corning) and washed with 1×DPBS then lifted with 0.05% Trypsin (Life Technologies). The cells were harvested in growth media then spun (1K rpm, 3 minutes) and cryopreserved using Recovery Cell Culture Freezing Media (Gibco Technologies). Cells were stored in liquid nitrogen and thawed a day before the assay.
Prior to the day of the assay, stable M4_CHO cells were thawed and plated on 384 well black walled clear bottom TC treated plates (Greiner Cat #781091) at 12K cells/well using F12/HAM Media supplemented with 10% FBS (Life Technologies) and kept overnight in a humidified atmosphere (5% CO2) at 37° C. The next day, cells were loaded with […] Ca^++ dye (BD Biosciences) using Loading Buffer (HBSS +Ca/+Mg, 20 mM HEPES, 2.5 mM Probenecid) and placed back in cell incubator for a minimum of 1 hour. After incubation, the dye was replaced with 45 μL Assay Buffer (HBSS −Ca/−Mg, 20 mM HEPES, 2.5 mM Probenecid) supplemented with 20 μM ATP (Sigma Aldrich) and kept at room temperature in the dark for 60 minutes before running on a cell imager. The FDSS 7000EX (Hamamatsu) was used to capture Ca^++ traces for a span of 3 minutes from cells treated with 11 point dose of compound in triplicate in order to generate dose response curves in agonist mode. All compounds were serially diluted in DMSO then prepared in Assay Buffer for Ca^++ flux studies. The dose response curves were generated from the average of triplicate wells obtained from each data point and used a non-linear regression of four parameter dose response algorithm. The Percent Activity (PA) was measured to EC100 of Carbachol.

[2] = biological target: T2, human cloned CHRM3 receptor (M3_CHO cells) (Homo sapiens, UniProt P20309); assay: CHRM3 Ca++ Flux Assay (agonist mode, FDSS 7000EX); format: cell-based; conditions: for M3 FDSS PA: Percent Activity measured to EC100 of Carbachol; for EC50: agonist mode, geometric mean if tested more than once, read-out: M3 FDSS EC50
T2 construct: expressed in transfected cells; host or cells: CHO-K1
T2 sequence (P20309 whole entry): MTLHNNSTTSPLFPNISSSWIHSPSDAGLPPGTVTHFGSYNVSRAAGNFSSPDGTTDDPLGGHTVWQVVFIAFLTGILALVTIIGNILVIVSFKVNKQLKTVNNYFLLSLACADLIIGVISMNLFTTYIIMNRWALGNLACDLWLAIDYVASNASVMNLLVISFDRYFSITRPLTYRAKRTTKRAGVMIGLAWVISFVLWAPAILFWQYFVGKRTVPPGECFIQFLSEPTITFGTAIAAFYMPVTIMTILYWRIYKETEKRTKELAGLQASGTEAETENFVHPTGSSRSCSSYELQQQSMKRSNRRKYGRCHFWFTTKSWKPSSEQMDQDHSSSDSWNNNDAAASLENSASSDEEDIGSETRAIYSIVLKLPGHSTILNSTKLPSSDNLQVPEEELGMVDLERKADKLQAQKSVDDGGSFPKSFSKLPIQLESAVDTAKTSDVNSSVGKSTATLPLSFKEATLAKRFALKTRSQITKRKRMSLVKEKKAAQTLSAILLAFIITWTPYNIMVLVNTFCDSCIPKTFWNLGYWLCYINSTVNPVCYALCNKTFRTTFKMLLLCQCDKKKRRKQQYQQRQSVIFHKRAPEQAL
Protocol: as §1
CHO-K1 cells stably expressing the human cloned CHRM3 receptor (M3_CHO cells) were grown and maintained in a monolayer culture with F12/HAM (Life Technologies) supplemented with 10% Fetal Bovine Serum, 1× Pen-Strep, and 0.4 mg/mL Geneticin in a humidified atmosphere (5% CO2) at 37° C. The cultures were grown to 80-9 0% confluency in T150 flasks (Corning) and washed with 1×DPBS and lifted with 0.05% Trypsin (Life Technologies). The cells were then spun (1K rpm, 3 minutes) and frozen using Recovery Cell Culture Freezing Media (Gibco Technologies). Cells were stored in liquid nitrogen and thawed a day before the assay. A similar procedure was used for cells stably expressing the human cloned CHRM5 receptor (M5_CHO).
Prior to the day of the assay, stable M3_CHO or M5_CHO cells were thawed and plated on Greiner 384 well black TC treated plates at 12K cells/well in F12/DMEM supplemented with 10% FBS (Hyclone) and kept overnight in a humidified atmosphere (5% CO2) at 37° C. The next day, cells were loaded with Ca^++ dye (BD Biosciences) using Loading Buffer (HBSS +Ca/+Mg, 20 mM HEPES, 2.5 mM Probenecid) and placed back in cell incubator for a minimum of 1 hour. After incubation, the dye was replaced with Assay Buffer (HBSS −Ca/−Mg, 20 mM HEPES, 2.5 mM Probenecid) and kept at room temperature in the dark before running on cell imager. The FDSS 7000EX (Hamamatsu) was used to acquire Ca^++ traces from cells treated with 11 point dose response of compounds in triplicate in order to generate dose response curves in agonist mode. All compounds were serially diluted in DMSO then prepared in Assay Buffer for Ca^++ flux studies. The dose response curves were generated from the average of triplicate wells obtained from each data point and used a non-linear regression of four parameter dose response algorithm. The Percent Activity (PA) was measured to EC100 of Carbachol.

O[C@H]1CC[C@@H](c2ccccc2C2CCN([C@@H]3CCC4(C3)CN(c3nnco3)C4)CC2)CC1 (single isomer, unassigned) [Example 2N, (1S,4s)-4-(2-(1-((R)-2-(1,3,4-oxadiazol-2-yl)-2-azaspiro[3.4]octan-6-yl)piperidin-4-yl)phenyl)cyclohexan-1-ol or (1R,4r)-4-(2-(1-((R)-2-(1,3,4-oxadiazol-2-yl)-2-azaspiro[3.4]octan-6-yl)piperidin-4-yl)phenyl)cyclohexan-1-ol]
M4 FDSS PA [1]: 81%
EC50 [1]: 1 nM
M3 FDSS PA [2]: 0%
EC50 [2]: > 25 µM

OC1CCC(c2ccccc2C2CCN([C@@H]3CCC4(C3)CN(c3nnco3)C4)CC2)CC1 (single isomer, unassigned) [Example 2O, (1s,4r)-4-(2-(1-((R)-2-(1,3,4-oxadiazol-2-yl)-2-azaspiro[3.4]octan-6-yl)piperidin-4-yl)phenyl)cyclohexan-1-ol or (1r,4r)-4-(2-(1-((R)-2-(1,3,4-oxadiazol-2-yl)-2-azaspiro[3.4]octan-6-yl)piperidin-4-yl)phenyl)cyclohexan-1-ol]
M4 FDSS PA [1]: 89%
EC50 [1]: < 0.4 nM
M3 FDSS PA [2]: 0%
EC50 [2]: > 25 µM

O=C(N1CC2(CC[C@@H](N3CCC(c4ccccc4OCCC(F)(F)F)CC3)C2)C1)C1(F)CC1 (single isomer, unassigned) [Example 7AA, (R)-(1-fluorocyclopropyl)(6-(4-(2-(3,3,3-trifluoropropoxy)phenyl)piperidin-1-yl)-2-azaspiro[3.4]octan-2-yl)methanone or (S)-(1-fluorocyclopropyl)(6-(4-(2-(3,3,3-trifluoropropoxy)phenyl)piperidin-1-yl)-2-azaspiro[3.4]octan-2-yl)methanone]
M4 FDSS PA [1]: 54%
EC50 [1]: 11 nM
M3 FDSS PA [2]: 0%
EC50 [2]: > 25 µM

CC(C)(O)CCOc1ccccc1C1CCN([C@@H]2CCC3(C2)CN(C(=O)C2(F)CC2)C3)CC1 (single isomer, unassigned) [Example 7BB, (R)-(1-fluorocyclopropyl)(6-(4-(2-(3-hydroxy-3-methylbutoxy)phenyl)piperidin-1-yl)-2-azaspiro[3.4]octan-2-yl)methanone or (S)-(1-fluorocyclopropyl)(6-(4-(2-(3-hydroxy-3-methylbutoxy)phenyl)piperidin-1-yl)-2-azaspiro[3.4]octan-2-yl)methanone]
M4 FDSS PA [1]: 38%
EC50 [1]: 2 nM
M3 FDSS PA [2]: 0%
EC50 [2]: > 25 µM

COC(C)(C)CCOc1ccccc1C1CCN([C@@H]2CCC3(C2)CN(C(=O)C2(F)CC2)C3)CC1 (single isomer, unassigned) [Example 7FF, (R)-(1-fluorocyclopropyl)(6-(4-(2-(3-methoxy-3-methylbutoxy)phenyl)piperidin-1-yl)-2-azaspiro[3.4]octan-2-yl)methanone or (S)-(1-fluorocyclopropyl)(6-(4-(2-(3-methoxy-3-methylbutoxy)phenyl)piperidin-1-yl)-2-azaspiro[3.4]octan-2-yl)methanone]
M4 FDSS PA [1]: 38%
EC50 [1]: 5 nM
M3 FDSS PA [2]: 0%
EC50 [2]: > 25 µM

O=C(N1CC2(CC[C@@H](N3CCC(c4ccccc4OCc4ncccn4)CC3)C2)C1)C1(F)CC1 (single isomer, unassigned) [Example 7M, (R)-(1-fluorocyclopropyl)(6-(4-(2-(pyrimidin-2-ylmethoxy)phenyl)piperidin-1-yl)-2-azaspiro[3.4]octan-2-yl)methanone or (S)-(1-fluorocyclopropyl)(6-(4-(2-(pyrimidin-2-ylmethoxy)phenyl)piperidin-1-yl)-2-azaspiro[3.4]octan-2-yl)methanone]
M4 FDSS PA [1]: 50%
EC50 [1]: 1 nM
M3 FDSS PA [2]: 0%
EC50 [2]: > 25 µM

O=C(N1CC2(CC[C@@H](N3CCC(c4ccccc4OCCO)CC3)C2)C1)C1(F)CC1 (single isomer, unassigned) [Example 7N, (R)-(1-fluorocyclopropyl)(6-(4-(2-(2-hydroxyethoxy)phenyl)piperidin-1-yl)-2-azaspiro[3.4]octan-2-yl)methanone or (S)-(1-fluorocyclopropyl)(6-(4-(2-(2-hydroxyethoxy)phenyl)piperidin-1-yl)-2-azaspiro[3.4]octan-2-yl)methanone]
M4 FDSS PA [1]: 68%
EC50 [1]: 1 nM
M3 FDSS PA [2]: 0%
EC50 [2]: > 25 µM

O=C(N1CC2(CC[C@@H](N3CCC(c4ccccc4OCC4CC4)CC3)C2)C1)C1(F)CC1 (single isomer, unassigned) [Example 7O, (R)-(6-(4-(2-(cyclopropylmethoxy)phenyl)piperidin-1-yl)-2-azaspiro[3.4]octan-2-yl)(1-fluorocyclopropyl)methanone or (R)-(6-(4-(2-(cyclopropylmethoxy)phenyl)piperidin-1-yl)-2-azaspiro[3.4]octan-2-yl)(1-fluorocyclopropyl)methanone]
M4 FDSS PA [1]: 42%
EC50 [1]: 9 nM
M3 FDSS PA [2]: 0%
EC50 [2]: > 25 µM

O=C(C1COC1)N1CC2(CC[C@H](N3CCC(c4ccccc4OC(F)F)CC3)C2)C1.O=C(O)CC(O)(CC(=O)O)C(=O)O (single isomer, unassigned) [Example 8E, (S)-(6-(4-(2-(difluoromethoxy)phenyl)piperidin-1-yl)-2-azaspiro[3.4]octan-2-yl)(oxetan-3-yl)methanone or (R)-(6-(4-(2-(difluoromethoxy)phenyl)piperidin-1-yl)-2-azaspiro[3.4]octan-2-yl)(oxetan-3-yl)methanone citrate salt]
M4 FDSS PA ([1]; citrate salt): 61%
EC50 ([1]; citrate salt): 2 nM

O=C(C1COC1)N1CC2(CC[C@H](N3CCC(c4ccccc4OC(F)F)CC3)C2)C1.O=C(O)CC(O)(CC(=O)O)C(=O)O (single isomer, unassigned) [Example 8F, (S)-(6-(4-(2-(difluoromethoxy)phenyl)piperidin-1-yl)-2-azaspiro[3.4]octan-2-yl)(oxetan-3-yl)methanone or (R)-(6-(4-(2-(difluoromethoxy)phenyl)piperidin-1-yl)-2-azaspiro[3.4]octan-2-yl)(oxetan-3-yl)methanone citrate salt]
M4 FDSS PA ([1]; citrate salt): 10%
EC50 ([1]; citrate salt): 1110 nM
